# Assay results from patent US8530663B2, “1-(2-phenoxymethylheteroaryl)piperidine and piperazine compounds” (Theravance, Inc., priority 2010, dated 2013).
# Marks after values point to notes of the source that are not given here.
# Columns and labels:
# hNET [1] = molecular target: T1, hNET (Homo sapiens, UniProt P23975); test: hNET membrane radioligand binding assay (3H-nisoxetine); conditions: hNET membranes, 1.0 nM 3H-nisoxetine; for Ki: read-out: NET pKi (converted)
# T1 construct: expressed in transfected cells; host or cells: HEK-293
# Description: (§1) Membrane radioligand binding assays were used to measure inhibition of labeled ligand (^3H-citalopram or ^3H-nisoxetine or ^3H-WIN35428) binding to membranes prepared from cells expressing the respective human recombinant transporter (hSERT or hNET or hDAT) in order to determine the pKi values of test compounds at the transporters.
# (§2) Recombinant human embryonic kidney (HEK-293) derived cell lines stably transfected with hSERT or hNET, respectively, were grown in DMEM medium supplemented with 10% dialyzed FBS (for hSERT) or FBS (for hNET), 100 μg/ml penicillin, 100 μg/ml streptomycin, 2 mM L-glutamine and 250 μg/ml of the aminoglycoside antibiotic G418, in a 5% CO2 humidified incubator at 37° C. When cultures reached 80% confluence, the cells were washed thoroughly in PBS (without Ca^2+ and Mg^2+) and lifted with 5 mM EDTA in PBS. Cells were pelleted by centrifugation, resuspended in lysis buffer (10 mM Tris-HCl, pH7.5 containing 1 mM EDTA), homogenized, pelleted by centrifugation, then resuspended in 50 mM Tris-HCl, pH 7.5 and 10% sucrose at 4° C. Protein concentration of the membrane suspension was determined using a Bio-Rad Bradford Protein Assay kit. Membranes were snap frozen and stored at −80° C. Chinese hamster ovary membranes expressing hDAT (CHO-DAT) were purchased from PerkinElmer and stored at −80° C.
# (§3) Binding assays were performed in a 96-well assay plate in a total volume of 200 μL assay buffer (50 mM Tris-HCl, 120 mM NaCl, 5 mM KCl, pH 7.4) with 0.5, 1, and 3 μg membrane protein, for SERT, NET and DAT, respectively.
# (§4) Stock solutions (10 mM in DMSO) of test compound were prepared and serial dilutions made using Dilution Buffer (50 mM Tris-HCl, 120 mM NaCl, 5 mM KCl, pH 7.4, 0.1% BSA, 400 μM ascorbic acid).
# (§5) Following a 60 minute incubation at 22° C. (or a period sufficient to reach equilibrium), the membranes were harvested by rapid filtration over a 96-well UniFilter GF/B plate, pretreated with 0.3% polyethyleneimine, and washed 6 times with 300 μl wash buffer (50 mM Tris-HCl, 0.9% NaCl, pH 7.5 at 4° C.). Plates were dried overnight at room temperature, ˜45 μl of MicroScint™-20 (Perkin Elmer) added and bound radioactivity quantitated via liquid scintillation spectroscopy. Inhibition curves and saturation isotherms were analyzed using GraphPad Prism Software package (GraphPad Software, Inc., San Diego, Calif.). IC50 values were generated from concentration response curves using the Sigmoidal Dose Response (variable slope) algorithm in Prism GraphPad. Kd and Bmax values for the radioligand were generated from saturation isotherms using the Saturation Binding Global Fit algorithm in Prism GraphPad. pKi (negative decadic logarithm of Ki) values for test compounds were calculated from the best-fit IC50 values, and the Kd value of the radioligand, using the Cheng-Prusoff equation (Cheng & Prusoff (1973) Biochem. Pharmacol. 22(23):3099-3108): Ki=IC50/(1+[L]/Kd), where [L]=concentration radioligand.
# hSERT [2] = molecular target: T2, hSERT (Homo sapiens, UniProt P31645); test: hSERT membrane radioligand binding assay (3H-citalopram); conditions: hSERT membranes, 1.0 nM 3H-citalopram; for Ki: read-out: SERT pKi (converted)
# T2 construct: expressed in transfected cells; host or cells: HEK-293
# Description: as §1, §2, §3, §4, §5
# hSERT [3] = molecular target: T2, hSERT; test: fluorescence-based serotonin reuptake assay (Tsuruda et al. 2010; data with asterisk); format: cell-based; conditions: serotonin reuptake inhibition, fluorescence-based assay (data indicated by an asterisk); for IC50: read-out: SERT pIC50 (converted)
# hNET [4] = molecular target: T1, hNET; test: fluorescence-based norepinephrine reuptake assay (Tsuruda et al. 2010; data with asterisk); format: cell-based; conditions: norepinephrine reuptake inhibition, fluorescence-based assay (data indicated by an asterisk); for IC50: read-out: NET pIC50 (converted)
# T1 sequence (P23975 whole entry): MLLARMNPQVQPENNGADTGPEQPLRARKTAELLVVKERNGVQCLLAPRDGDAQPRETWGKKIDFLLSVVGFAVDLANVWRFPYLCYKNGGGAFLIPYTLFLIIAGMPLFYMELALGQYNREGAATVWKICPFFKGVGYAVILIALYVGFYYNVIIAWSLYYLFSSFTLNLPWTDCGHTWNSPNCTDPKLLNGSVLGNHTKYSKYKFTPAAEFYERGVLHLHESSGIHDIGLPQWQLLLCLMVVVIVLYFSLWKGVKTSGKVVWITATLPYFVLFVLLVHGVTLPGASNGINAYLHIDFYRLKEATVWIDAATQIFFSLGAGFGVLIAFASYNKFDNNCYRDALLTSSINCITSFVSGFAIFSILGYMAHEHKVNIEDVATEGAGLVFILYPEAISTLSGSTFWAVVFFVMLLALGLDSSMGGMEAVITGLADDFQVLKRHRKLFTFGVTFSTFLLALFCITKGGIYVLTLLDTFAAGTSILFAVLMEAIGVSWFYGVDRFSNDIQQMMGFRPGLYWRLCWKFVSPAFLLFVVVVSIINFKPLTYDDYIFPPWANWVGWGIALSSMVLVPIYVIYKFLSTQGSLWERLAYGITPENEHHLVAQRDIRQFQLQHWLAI
# T2 sequence (P31645 whole entry): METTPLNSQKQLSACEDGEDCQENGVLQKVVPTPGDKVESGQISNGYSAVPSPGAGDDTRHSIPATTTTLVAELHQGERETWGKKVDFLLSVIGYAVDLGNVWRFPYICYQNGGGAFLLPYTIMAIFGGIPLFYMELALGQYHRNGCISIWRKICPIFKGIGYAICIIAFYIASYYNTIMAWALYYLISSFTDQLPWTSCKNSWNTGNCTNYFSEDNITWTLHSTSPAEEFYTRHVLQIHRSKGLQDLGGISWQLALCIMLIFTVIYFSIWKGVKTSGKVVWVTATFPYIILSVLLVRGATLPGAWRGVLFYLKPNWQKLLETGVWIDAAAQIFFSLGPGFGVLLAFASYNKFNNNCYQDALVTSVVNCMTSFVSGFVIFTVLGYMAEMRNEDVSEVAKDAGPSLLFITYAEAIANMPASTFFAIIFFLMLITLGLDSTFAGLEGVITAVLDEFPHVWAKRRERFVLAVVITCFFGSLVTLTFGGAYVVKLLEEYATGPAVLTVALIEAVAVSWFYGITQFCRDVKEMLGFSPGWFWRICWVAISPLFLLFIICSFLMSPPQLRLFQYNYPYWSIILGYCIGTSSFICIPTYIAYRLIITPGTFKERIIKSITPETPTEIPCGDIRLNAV
NET pKi (hNET [1]),SERT pKi (hSERT [2]),Structure (SMILES),other results
≧7.0,≧6.0,Fc1ccccc1OCc1ccsc1C1CCNCC1 [Example 31-1],–
≧6.0,≧7.0,Fc1cc(Cl)cc(F)c1OCc1ncccc1C1CCNCC1 [Example 2-8],–
≧7.0,≧7.0,Fc1cccc(Cl)c1OCc1cccnc1C1CCNCC1 [Example 14-5],–
≧5.0,≧6.0,c1ccc(OCc2cnccc2C2CCNCC2)cc1 [Example 6-1],–
≧6.0,≧7.0,Clc1cccc(OCc2ccncc2C2CCNCC2)c1 [Example 10-6],–
≧7.0,≧7.0,Fc1ccc(F)c(OCc2cnccc2C2CCNCC2)c1Cl [Example 6-9],–
≧6.0,≧7.0,Fc1ccc(F)c(OCc2ncccc2C2CCNCC2)c1F [Example 2-7],–
–,–,"c1ccc(OCc2ccsc2C2CCNCC2)cc1 [Example 30, 4-(3-Phenoxymethylthiophen-2-yl)piperidine]",Ki (hNET [1]): ≤ 100 nM; Ki (hSERT [2]): ≤ 100 nM
≧7.0,≧6.0,Fc1cccc(F)c1OCc1ncccc1C1CCNCC1 [Example 2-4],–
–,–,c1ccc(OCc2ccoc2C2CCNCC2)cc1 [Example 22-1],SERT pIC50 (hSERT [3]): ≧6.0*; NET pIC50 (hNET [4]): ≧7.0*
≧7.0,≧7.0,Fc1cc(F)c(OCc2ccsc2C2CCNCC2)c(F)c1 [Example 31-3],SERT pIC50 (hSERT [3]): ≧7.0*; NET pIC50 (hNET [4]): ≧7.0*
≧7.0,≧7.0,Fc1ccc(F)c(OCc2ccncc2C2CCNCC2)c1Cl [Example 10-9],–
≧7.0,≧7.0,Fc1cc(Cl)cc(F)c1OCc1ccncc1C1CCNCC1 [Example 10-8],–
≧7.0,≧7.0,Fc1cc(F)c(OCc2cnccc2C2CCNCC2)c(F)c1 [Example 6-7],–
≧6.0,≧7.0,Fc1ccc(F)c(OCc2ncccc2C2CCNCC2)c1Cl [Example 2-9],SERT pIC50 (hSERT [3]): ≧7.0*; NET pIC50 (hNET [4]): ≧7.0*
≧6.0,≧7.0,Fc1ccccc1OCc1cnccc1C1CCNCC1 [Example 6-2],–
≧6.0,≧5.0,c1ccc(OCc2ncccc2C2CCNCC2)cc1 [Example 2-1],–
≧7.0,≧7.0,Fc1cc(Cl)cc(F)c1OCc1ccsc1C1CCNCC1 [Example 31-4],–
≧7.0,≧7.0,Fc1cccc(Cl)c1OCc1ncccc1C1CCNCC1 [Example 2-5],–
≧6.0,≧7.0,Clc1cccc(OCc2cscc2C2CCNCC2)c1 [Example 28-2],–
≧7.0,≧6.0,Fc1cccc(F)c1OCc1cccnc1C1CCNCC1 [Example 14-4],–
≧7.0,≧7.0,Fc1cccc(F)c1OCc1ccncc1C1CCNCC1 [Example 10-3],–
–,–,"Fc1cccc(F)c1OCc1cnccc1C1CCNCC1 [Example 5, 3′-(2,6-Difluorophenoxymethyl)-1,2,3,4,5,6-hexahydro[4,4′]bipyridinyl]",Ki (hNET [1]): ≤ 100 nM; Ki (hSERT [2]): ≤ 100 nM
≧7.0,≧7.0,Clc1cccc(Cl)c1OCc1cnccc1C1CCNCC1 [Example 6-5],–
≧5.0,≧7.0,Fc1cccc(Cl)c1OCc1sccc1C1CCNCC1 [Example 25-3],–
≧7.0,≧7.0,Fc1cc(Cl)cc(F)c1OCc1cscc1C1CCNCC1 [Example 28-4],–
–,–,"Clc1cccc(OCc2ccoc2C2CCNCC2)c1 [Example 21, 4-[3-(3-Chlorophenoxymethyl)furan-2-yl]piperidine]",IC50 (hSERT [3]): ≤ 100 nM; IC50 (hNET [4]): ≤ 100 nM
≧7.0,≧7.0,Clc1cccc(Cl)c1OCc1cccnc1C1CCNCC1 [Example 14-6],–

NET pKi (hNET [1]),SERT pKi (hSERT [2]),Structure (SMILES),other results
≧7.0,≧6.0,Fc1ccccc1OCc1ncccc1C1CCNCC1 [Example 2-2],–
–,–,Clc1cccc(Cl)c1OCc1occc1C1CCNCC1 [Example 18-1],SERT pIC50 (hSERT [3]): ≧7.0*; NET pIC50 (hNET [4]): ≧4.5*
≧6.0,≧7.0,Fc1cc(Cl)cc(F)c1OCc1cnccc1C1CCNCC1 [Example 6-8],–
≧7.0,≧7.0,Clc1cccc(Cl)c1OCc1ncccc1C1CCNCC1 [Example 2-6],–
≧6.0,≧6.0,Fc1ccc(F)c(OCc2sccc2C2CCNCC2)c1F [Example 25-4],–
≧7.0,≧7.0,Fc1ccccc1OCc1cscc1C1CCNCC1 [Example 28-1],–
≧7.0,≧7.0,Fc1ccc(F)c(OCc2cccnc2C2CCNCC2)c1F [Example 14-7],–
≧5.0,≧7.0,Clc1cccc(OCc2cccnc2C2CCNCC2)c1 [Example 14-3],–
≧7.0,≧7.0,Fc1ccc(F)c(OCc2cscc2C2CCNCC2)c1Cl [Example 28-5],–
≧5.0,≧7.0,Clc1cccc(OCc2cnccc2C2CCNCC2)c1 [Example 6-3],–
≧6.0,≧6.0,c1ccc(OCc2ccncc2C2CCNCC2)cc1 [Example 10-1],–
≧6.0,≧6.0,c1ccc(OCc2cccnc2C2CCNCC2)cc1 [Example 14-1],–
≧7.0,≧7.0,Clc1cccc(Cl)c1OCc1ccncc1C1CCNCC1 [Example 10-5],–
≧5.0,≧7.0,Clc1cccc(Cl)c1OCc1sccc1C1CCNCC1 [Example 25-1],–
≧7.0,≧7.0,Fc1cc(Cl)cc(F)c1OCc1cccnc1C1CCNCC1 [Example 14-8],–
–,–,"c1ccc(OCc2occc2C2CCNCC2)cc1 [Example 17, 4-(2-Phenoxymethylfuran-3-yl)piperidine]",IC50 (hSERT [3]): ≤ 100 nM; IC50 (hNET [4]): ≤ 100 nM
≧7.0,≧6.0,Fc1ccccc1OCc1cccnc1C1CCNCC1 [Example 14-2],–
–,–,Fc1cccc(F)c1OCc1ccoc1C1CCNCC1 [Example 22-2],SERT pIC50 (hSERT [3]): ≧5.0*; NET pIC50 (hNET [4]): ≧6.0*
≧5.0,≧7.0,Clc1cccc(OCc2ncccc2C2CCNCC2)c1 [Example 2-3],–
≧6.0,≧6.0,Fc1cccc(F)c1OCc1sccc1C1CCNCC1 [Example 25-2],–
≧7.0,≧7.0,Fc1cccc(Cl)c1OCc1cnccc1C1CCNCC1 [Example 6-4],–
–,–,"Fc1cc(F)c(OCc2ncccc2C2CCNCC2)c(F)c1 [Example 1, 2-(2,4,6-Trifluorophenoxymethyl)-1′,2′,3′,4′,5′,6′-hexahydro[3,4]bipyridinyl]",Ki (hNET [1]): ≤ 100 nM; Ki (hSERT [2]): ≤ 100 nM
≧7.0,≧7.0,Fc1ccc(F)c(OCc2ccncc2C2CCNCC2)c1F [Example 10-7],–
–,–,Clc1cccc(OCc2occc2C2CCNCC2)c1 [Example 18-2],SERT pIC50 (hSERT [3]): ≧7.0*; NET pIC50 (hNET [4]): ≧7.0*
–,–,Fc1cccc(F)c1OCc1occc1C1CCNCC1 [Example 18-3],SERT pIC50 (hSERT [3]): ≧6.0*; NET pIC50 (hNET [4]): ≧5.0*
≧7.0,≧7.0,Fc1ccccc1OCc1ccncc1C1CCNCC1 [Example 10-2],–
≧6.0,≧7.0,Fc1ccc(F)c(OCc2cnccc2C2CCNCC2)c1F [Example 6-6],–
